The numbers were not newly measured in patent US20120321587A1, “COMPOSITIONS AND METHODS OF USE PERTAINING TO INSECTICIDE” (priority 2009, published 2012), which cites them from elsewhere.

The series has as its system aphids. To be noted: nymphs and adults.

Turning to `CCCCCCCCOC(=O)CC(C(=O)OCCCCCCCC)S(=O)(=O)O.[Na]` (centres unmarked) [sodium dioctyl sulfosuccinate], the “efficacy in treating aphids” value is on record as “primary compound responsible for the observed insecticidal activity”.
For `CCCCCCCCCCCCOS(=O)(=O)[O-].[Na+]` [sodium lauryl sulfate], the “efficacy in treating aphids” value is listed as “limited efficacy”.
